Results: paper PMC9888480, “Carboranyl-1,8-naphthalimide intercalators induce lysosomal membrane permeabilization and ferroptosis in cancer cell lines” (Journal of Enzyme Inhibition and Medicinal Chemistry, 2023)
Read-outs that look alike come from different tables or passages of the source.

Tests used:
ct-DNA [1] = assay: Melting temperature (Tm) measurements of ct-DNA; type: binding, calf; details: r = [compound]/[ct-DNA] = 0.3, cacodylate buffer pH 7.0; Tm of free ct-DNA 74 °C; error ±0.5 °C
Experimental: The measurements were carried out by adding aliquots of DMSO stock solution of the tested compounds to the buffer solution (pH 7.0, 20 mM, cacodylate buffer, DMSO content of the final solution = 0.33–0.39%). Tm curves were collected at r = 0.3 (r = [compound]/[ct-DNA]) to assure the dominant binding mode. Thermal melting curves were plotted considering the absorption change at 260 nm as a function of temperature using a GBC Cintra10 UV–VIS spectrometer (Dandenong, Australia) equipped with a GBC Thermocell Peltier Power Supply (Dandenong, Australia) with the use of a 1-cm-path-length cell. The absorbance of the samples was monitored at 260 nm from 35 to 95 °C with a heating rate of 1 °C/min. Tm values are the midpoints or the transition curves determined from the maximum of the first derivative. ΔTm values were calculated by subtracting the Tm of the free nucleic acid from the Tm of the sample. All ΔTm values reported in the study were measured in triplicate. The error in ΔTm was ±0.5 °C.

ct-DNA [2] = assay: UV–vis spectra titration with ct-DNA (binding constant Kb); parameters: species or system calf; details: for Kb compared to that of mitonafide: mitonafide Kb 2.54 × 10^5
Experimental: The measurements were performed by adding aliquots of DMSO stock solution of the tested compounds to the buffer solution (pH 7.4, 20 mM, 50 mM NaCl, Tris–HCl buffer, DMSO content of the final solutions = 0.54–0.65%) to the final concentration 10 µM. The tested compounds were incubated for 5 min, with increasing concentrations ranging from 0 to 15 µM of ct-DNA at 37 °C. Then, the UV–vis absorption spectra between 300 and 500 nm were recorded using a GBC Cintra10 UV–VIS spectrometer equipped with a GBC Thermocell Peltier Power Supply with the use of a 1-cm-path-length cell. The binding constant was calculated according to the following equation[70]: A0/A−A0= εG/εH−G−εG+ εG/εH−G−εG × 1/Kb[DNA] where Kb is the binding constant; A0 and a are absorbances of the free tested compound and the apparent one; εG and εH–G are their coefficient, respectively; [DNA] is the concentration of DNA in base pairs. The slope to intercept ratio of the plot between A0/A − A0 and 1/[DNA] yielded the binding constant.

ct-DNA [3] = assay: Circular dichroism (CD) measurements of ct-DNA; type: binding, calf; details: increasing concentration of conjugate, r = 0.1–0.5, cacodylate buffer pH 7.0
Experimental: The measurements were performed by adding aliquots of DMSO stock solution of the tested compounds to the buffer solution (pH 7.0, 20 mM, cacodylate buffer, DMSO content of the final solutions = 0.22–1.30%). Changes in the CD spectrum of ct-DNA upon the addition of compound were measured at different molar ratios r = [compound]/[ct-DNA]. CD spectra were recorded on a JASCO J-815 CD spectrometer with a JASCO PFD-425S Peltier thermostated cell holder (JASCO, Tokyo, Japan) by using a square quartz cuvette of path length 0.5 cm (0.5 ml) in the 230–400 nm region. The CD profiles reported were an average of three successive scans with a scan time of 200 nm per minute and an appropriately corrected baseline. Temperature was maintained at 20 °C during the experiment.

HepG2 [4] = assay: In vitro cytotoxic activity, MTT assay; type: cell-based, human; details: concentration required to inhibit cell growth by 50%
Source text: The in vitro cytotoxic activity of the obtained carborane-1,8-naphthalimide conjugates was investigated by examining their cytotoxic effects using the MTT (3–(4,5-dimethylthiazol-2-yl)-2,5-diphenyltetrazolium bromide) dye assay[38]^,[39] against the human cancer cell line HepG2 established from hepatocellular carcinoma (for compounds 12–19 and 30–37) and against human lung fibroblasts (MRC-5) (for compounds 34–37). The IC50 values—the drug concentration (µM) required to inhibit cell growth by 50%—determined for the synthesised compounds are summarised in Table 2.
The cytotoxic properties of the synthesised compounds were evaluated using the human hepatocellular carcinoma cell line (HepG2) and human lung fibroblasts (MRC-5). The HepG2 and MRC-5 cell lines were purchased from American Type Culture Collection (ATCC, Manassas, VA, USA). The HepG2 cells were propagated in Eagle’s minimal essential medium (EMEM, ATCC, Manassas, VA, USA), supplemented with 10% inactivated foetal bovine serum (FBS, Life Technologies, Warsaw, Poland) and 100 units/ml penicillin G with […] streptomycin (Life Technologies, Warsaw, Poland). The cells were incubated at 37 °C in a humidified atmosphere containing 5% CO2. Upon reaching 80–90% confluency, the cells were harvested with 0.25% trypsin in 1 mM EDTA (Life Technologies, Warsaw, Poland) and transferred to 96-well microplates at 2 × 10^4 cells/well. After overnight incubation of cells at 37 °C in a humidified atmosphere containing 5% CO2, the culture medium was removed and replaced with a freshly prepared solution of compounds in the culture medium or medium itself as the control group. The stock solutions of each compound were prepared in DMSO at a concentration of 100 mM and were diluted with the growth medium supplemented with 10% FBS to ensure drug dissolution to obtain concentrations ranging from 0.1 to 1000 µM. Cytotoxicity was evaluated using the MTT assay. After incubation with the compounds, the cells were treated with MTT dye solution (5 mg/ml) for 2 h and lysed with a solvent solution containing DMF (45 ml), sodium dodecylsulfate (13.5 g), and distilled water (55 ml). After overnight incubation at 37 °C, optical density at 550 nm, with a reference wavelength of 670 nm, was measured in an ELISA reader (VarioskanLux, Thermo Scientific, Waltham, MA, USA). All determinations were carried out in triplicate. Results were calculated as the percentage of control group viability. The IC50 values of the compounds were calculated in an Excel add-in ED50V10.

HepG2 cells = test system: HepG2 cells; parameters: method as in PMID 31776032; details: earlier N-imide derivatives; cited from earlier work
human topoisomerase IIα = molecular target: human topoisomerase IIα; parameters: method as in PMID 35562989; details: earlier study of 4-carboranyl-1,8-naphthalimides; read-out: anti-Topo II activity IC50; cited from earlier work
ct-DNA [5] = test system: ct-DNA; parameters: method as in PMID 33803403; details: unmodified mitonafide and pinafide; cited from earlier work
HepG2 [6] = test system: HepG2; parameters: method as in PMID 31776032; details: footnote of Table 2, reference compounds; cited from earlier work

Compound	ΔTm ct-DNA (ct-DNA [1]) [°C]	change in the CD spectra of ct-DNA (ct-DNA [3])	IC50 (HepG2 [4]) [µM]	Kb compared to that of mitonafide (ct-DNA [2])	also measured
4-[(2-[(1,7-Dicarba-closo-dodecaborane-1-yl)ethylamino]ethyl)amino]-3-nitro-N-[2-(N-pyrrolidinyl)ethyl]-1,8-naphthalimide [Compound 33]	0.33	did not cause any appreciable change	20.6 ± 3.83	–	changes in the absorbance on addition of ct-DNA (ct-DNA [2]; UV–vis, 1.25–15 µM ct-DNA, 10 µM compound): changes in the absorbance were not observed
N-[3–(1,2-dicarba-closo-dodecaborane-1-yl)propyl]-1,8-naphthalimide	–	–	–	–	intracellular ROS production (fluorescence intensity) (HepG2 cells): approximately twofold increase
4-[(2-[(1,7-Dicarba-closo-dodecaborane-1-yl)ethylamino]ethyl)amino]-N-[2-(dimethylamino)ethyl]-3-nitro-1,8-naphthalimide [Compound 31]	1.67	did not cause any appreciable change	11.6 ± 0.62	similar	bathochromic effect (ct-DNA [2]; UV–vis, addition of 1.25–15 µM ct-DNA to 10 µM compound): 6 nm
4-[(2-[3–(1,2-Dicarba-closo-dodecaborane-1-yl)propanamido]ethyl)amino]-3-nitro-N-[2-(N-pyrrolidinyl)ethyl]-1,8-naphthalimide [Compound 14]	3.33	disturbed	8.97 ± 1.13	similar	–
N-{[2–(3,3′-commo-bis(1,2-dicarba-3-cobalta(III)-closo-dodecaborate-1-yl)ethyl]-1′-aminoethyl)}-1,8-naphthalimide]	–	–	–	–	intracellular ROS production (fluorescence intensity) (HepG2 cells): approximately twofold increase
N-[2-(N-pyrrolidinyl)ethyl]-4-[(2–(3–(1,2-dicarba-closo-dodecaborane-1-yl)propanamido)ethyl)amino]-1,8-naphthalimide	–	–	–	–	IC50 (human topoisomerase IIα): 2.81 µM
4-[(6-[3–(1,2-Dicarba-closo-dodecaborane-1-yl)propanamido]hexyl)amino]-3-nitro-N-[2-(N-pyrrolidinyl)ethyl]-1,8-naphthalimide [Compound 18]	–	–	4.79 ± 0.8	approximately 1.5 fold	–
4-[(6-[3–(1,7-Dicarba-closo-dodecaborane-1-yl)propanamido]hexyl)amino]-3-nitro-N-[2-(N-pyrrolidinyl)ethyl]-1,8-naphthalimide [Compound 19]	–	–	5.86 ± 0.56	–	–
O=C1c2cccc3cc([N+](=O)[O-])cc(c23)C(=O)N1CCN1CCCC1 [pinafide]	–	–	–	–	ΔTm (ct-DNA [5]): 6.50 °C; IC50 (HepG2 [6]): 1.23 µM
CN(C)CCN1C(=O)c2cccc3cc([N+](=O)[O-])cc(c23)C1=O [mitonafide]	–	–	–	–	ΔTm (ct-DNA [5]): 5.17 °C; IC50 (HepG2 [6]): < 1 µM; IC50 (human topoisomerase IIα): 5.13 µM
4-[(2-[(1,2-Dicarba-closo-dodecaborane-1-yl)ethylamino]ethyl)amino]-3-nitro-N-[2-(N-pyrrolidinyl)ethyl]-1,8-naphthalimide [Compound 32]	0.33	disturbed	8.12 ± 0.88	approximately 1.5 fold	–
N-[2-(dimethylamino)ethyl]-4-{1-[3-(1,2-dicarba-closo-dodecaborane-1-yl)propyl]-1H-1,2,3-triazol-4-yl}-1,8-naphthalimide	–	–	–	–	IC50 (human topoisomerase IIα): 0.58 µM
4-[(6-[3–(1,7-Dicarba-closo-dodecaborane-1-yl)propanamido]hexyl)amino]-N-[2-(dimethylamino)ethyl]-3-nitro-1,8-naphthalimide [Compound 17]	–	–	8.03 ± 1.25	similar	–
4-[(2-[3–(1,7-Dicarba-closo-dodecaborane-1-yl)propanamido]ethyl)amino]-3-nitro-N-[2-(N-pyrrolidinyl)ethyl]-1,8-naphthalimide [Compound 15]	5.00	disturbed	9.23 ± 0.35	similar	–
4-[(2-[3–(1,7-Dicarba-closo-dodecaborane-1-yl)propanamido]ethyl)amino]-N-[2-(dimethylamino)ethyl]-3-nitro-1,8-naphthalimide [Compound 13]	3.67	did not cause any appreciable change	9.2 ± 0.68	–	–
4-[(6-[3–(1,2-Dicarba-closo-dodecaborane-1-yl)propanamido]hexyl)amino]-N-[2-(dimethylamino)ethyl]-3-nitro-1,8-naphthalimide [Compound 16]	–	–	5.12 ± 0.87	approximately 1.5 fold	–
4-[(2-[(1,2-Dicarba-closo-dodecaborane-1-yl)ethylamino]ethyl)amino]-N-[2-(dimethylamino)ethyl]-3-nitro-1,8-naphthalimide [Compound 30]	3.33	disturbed	4.51 ± 0.66	–	–
N-[2–(3,3′-commo-bis(1,2-dicarba-3-cobalta(III)-closo-dodecaborate-1-yl)ethyl)]-1,8-naphthalimide	–	–	–	–	intracellular ROS production (fluorescence intensity) (HepG2 cells): approximately twofold increase
4-[(2-[3–(1,2-Dicarba-closo-dodecaborane-1-yl)propanamido]ethyl)amino]-N-[2-(dimethylamino)ethyl]-3-nitro-1,8-naphthalimide [Compound 12]	3.33	did not cause any appreciable change	21.7 ± 0.95	similar	–
